Where two headings read alike, the source gives them in different places. Starred links: 1 amine or outer side, 2 acyl side, 3 side chain; linkers in the order of their positions; H or OH if unused. Non-standard residues stand in square brackets, D forms with d. Residues, ends and D or L forms follow the SMILES beside them. *: point of attachment. NMedβ3hAla = C[C@H](CC(=O)[*:2])N(C)[*:1]; NMeF = CN[C@@H](Cc1ccccc1)C(=O)O; NMeI = CC[C@H](C)[C@H](NC)C(=O)O; NMeT = CN[C@H](C(=O)O)[C@@H](C)O; hPhe = N[C@@H](CCc1ccccc1)C(=O)O; NMeβAla = CN(CCC(=O)[*:2])[*:1]; NMeL = CN[C@@H](CC(C)C)C(=O)O; NMeV = CN[C@H](C(=O)O)C(C)C; d(β3hA) = C[C@@H](N)CC(=O)O; NMeAbu = CC[C@H](NC)C(=O)O; Abu = CC[C@H](N)C(=O)O; Sar = CNCC(=O)O; tBu = CC(C)(C)*
Columns and labels:
[1] = Metabolic stability test: liver microsomal stability assay; format: in vitro ADME, mouse; conditions: for microsomal CLint at 1 µM: male, pH 7.4, presence of NADPH, read-out: Mouse Hepatic Microsome CLh,int NADPH(+)
[2] = Membrane permeability test using Caco-2 cells with preincubation; format: in vitro ADME; conditions: Caco-2
[3] = system: Caco-2 cells; experiment: as above; format: in vitro ADME
[4] = Mouse PK test: plasma concentration after intravenous or oral administration; format: in vivo, mice (C57BL/6J); conditions: C57BL/6J
Experimental: We evaluated the plasma concentration changes after intravenous or oral administration of four types of peptides that satisfy these conditions to mice.
To male mice (C57BL/6J, 10 weeks old, purchased from Charles River Laboratories Japan, Inc.: 3 mice per group), the compound was administered intravenously at a dose of 1 mg/kg or orally at a dose of 50 mg/kg, and blood was collected from the jugular vein over time up to 24 hours after administration. The collected blood was dispensed into tubes that were pre-treated with heparin as an anticoagulant. Plasma was separated from the blood by centrifugation, and after deproteinization with acetonitrile, the plasma concentration of the compound was measured with an LC/MS/MS device (XEVO TQ-XS, manufactured by Waters Corporation).

[5] = mouse liver microsomes 0.5 mg protein/mL, compound 1 µM
[6] = mouse liver microsomes 0.5 mg protein/mL, compound 1 µM, absence of NADPH
[7] = preincubation 20 to 24 hours, Apical FaSSIF/HBSS pH 6.0, Basal HBSS 4% BSA pH 7.4, 180 minutes, read-out: Caco2 Papp
[8] = Caco-2 cells, preincubation 20 to 24 hours, apical FaSSIF/HBSS 1% DMSO pH 6.0, basal HBSS 4% BSA pH 7.4, basal sample at 180 minutes
[9] = plasma, male mice, intravenous administration, 1 mg/kg, read-out: AUCinf
[10] = plasma, male mice, intravenous administration, 1 mg/kg, read-out: CL
[11] = plasma, male mice, intravenous administration, 1 mg/kg, read-out: Vss
[12] = plasma, male mice, intravenous administration, 1 mg/kg, read-out: t1/2 (converted)
[13] = plasma, male mice, oral 50 mg/kg vs intravenous 1 mg/kg, bioavailability, read-out: F
[14] = plasma, male mice, oral administration, 50 mg/kg, read-out: AUCinf
[15] = plasma, male mice, oral administration, 50 mg/kg, read-out: Cmax
[16] = plasma, male mice, oral administration, 50 mg/kg, read-out: Tmax
[17] = plasma, male mice, oral administration, 50 mg/kg, read-out: t1/2 (converted)

| microsomal CLint at 1 µM [1, 5] | Mouse Hepatic Microsome CLh,int NADPH(-) [1, 6] | Papp A→B [2, 7] | Caco2 Papp (10^-6 cm/sec) [3, 8] | AUC(0-inf) [4, 9] | clearance [4, 10] | Vd [4, 11] | half-life [4, 12] | bioavailability [4, 13] | AUC(0-inf) [4, 14] | Cmax [4, 15] | Tmax [4, 16] | half-life [4, 17] | Structure (SMILES) | other results |
| --- | --- | --- | --- | --- | --- | --- | --- | --- | --- | --- | --- | --- | --- | --- |
| 50.4 µL/min/mg | 44.8 µL/min/mg Protein | 1.16 ×10⁻⁶ cm/s | 1.16 10^-6 cm/sec | 1200 ng·h/mL | 14 mL/min/kg | 11 L/kg | 12 h | 33% | 20000 ng·h/mL | 2200 ng/mL | 2.7 h | 6.6 h | CC[C@H](C)[C@@H]1NC(=O)[C@H](CC(C)C)N(C)C(=O)C[C@@H](C)NC(=O)[C@H](C(C)C)N(C)C(=O)[C@H](COC(C)(C)C)NC(=O)[C@H](CC)N(C)C(=O)[C@H](Cc2ccccc2)N(C)C(=O)[C@H](CC(C)C)NC(=O)[C@@H]2CCCN2C(=O)[C@H]([C@@H](C)O)N(C)C(=O)[C@H](CC(C)C)N(C)C(=O)[C@H](CC)N(C)C(=O)[C@H](C(C)C)NC(=O)[C@H](CC(C)C)N(C)C1=O [pd057] (cyclo(I[NMeL]V[NMeAbu][NMeL][NMeT]PL[NMeF][NMeAbu]S(tBu)[NMeV][d(β3hA)][NMeL])) | – |
| 39.5 µL/min/mg | 28.4 µL/min/mg Protein | 1.95 ×10⁻⁶ cm/s | 1.95 10^-6 cm/sec | 10000 ng·h/mL | 1.7 mL/min/kg | 0.81 L/kg | 6.4 h | 16% | 79000 ng·h/mL | 7000 ng/mL | 1.7 h | 7.6 h | CC[C@@H]1NC(=O)[C@H](CC(C)C)N(C)C(=O)[C@H]([C@@H](C)CC)NC(=O)[C@H](CC(C)C)N(C)C(=O)C[C@@H](C)NC(=O)[C@H](C(C)C)N(C)C(=O)[C@H](CC(C)C)NC(=O)[C@H](CC)N(C)C(=O)[C@H](Cc2ccccc2)N(C)C(=O)[C@@H]2CCCN2C(=O)[C@H](CC(C)C)NC(=O)[C@H]([C@@H](C)O)N(C)C(=O)[C@H](CC(C)C)N(C)C1=O [pd135] (cyclo([Abu][NMeL][NMeT]LP[NMeF][NMeAbu]L[NMeV][d(β3hA)][NMeL]I[NMeL])) | – |
| – | – | – | – | – | – | – | – | – | – | – | – | – | CC[C@H](C)[C@H]1C(=O)N[C@@H](CC(C)C)C(=O)N(C)CC(=O)N(C)[C@@H](CC(C)C)C(=O)N[C@@H](CC(C)C)C(=O)N(C)[C@H](C)CC(=O)N(C)[C@@H](CC(C)C)C(=O)N(C)CCC(=O)N(C)[C@@H](CC(C)C)C(=O)N[C@@H](COC(C)(C)C)C(=O)N(C)[C@@H](Cc2ccccc2)C(=O)N(C)CCC(=O)N(C)[C@@H](Cc2ccccc2)C(=O)N1C [pd144] (cyclo(L[Sar][NMeL]L[NMedβ3hAla][NMeL][NMeβAla][NMeL]S(tBu)[NMeF][NMeβAla][NMeF][NMeI])) | Mouse Hepatic Microsome CLh,int NADPH(-) [1]: 34.0 µL/min/mg Protein; Papp A→B [2]: 1.28 ×10⁻⁶ cm/s; Caco2 Papp (10^-6 cm/sec) ([3]; Caco-2): 1.28 10^-6 cm/sec; AUC(0-inf) ([4]; male, in vivo, iv, 1 mg/kg): 3500 ng·h/mL; Vd ([4]; male, in vivo, iv, 1 mg/kg): 1.6 L/kg; clearance ([4]; male, in vivo, iv, 1 mg/kg): 4.9 mL/min/kg; half-life ([4]; male, in vivo, iv, 1 mg/kg): 5.3 h; bioavailability ([4]; male, in vivo, po): 40%; AUC(0-inf) ([4]; male, in vivo, po, 50 mg/kg): 71000 ng·h/mL; Cmax ([4]; male, in vivo, po, 50 mg/kg): 7000 ng/mL; Tmax ([4]; male, in vivo, po, 50 mg/kg): 1.3 h; half-life ([4]; male, in vivo, po, 50 mg/kg): 9.7 h |

| Structure (SMILES) | microsomal CLint at 1 µM [1, 5] | Mouse Hepatic Microsome CLh,int NADPH(-) [1, 6] | Papp A→B [2, 7] | Caco2 Papp (10^-6 cm/sec) [3, 8] | AUC(0-inf) [4, 9] | clearance [4, 10] | Vd [4, 11] | half-life [4, 12] | bioavailability [4, 13] | AUC(0-inf) [4, 14] | Cmax [4, 15] | Tmax [4, 16] | half-life [4, 17] | other results |
| --- | --- | --- | --- | --- | --- | --- | --- | --- | --- | --- | --- | --- | --- | --- |
| CC[C@@H]1NC(=O)[C@H](CC(C)C)N(C)C(=O)[C@H](COC(C)(C)C)NC(=O)[C@H]([C@@H](C)CC)N(C)C(=O)[C@H](CCc2ccccc2)NC(=O)[C@H](Cc2ccccc2)N(C)C(=O)[C@H](C(C)C)NC(=O)[C@H](CC(C)C)N(C)C(=O)[C@H](CC(C)C)NC(=O)CCN(C)C(=O)C[C@@H](C)N(C)C(=O)CN(C)C(=O)[C@H](CC(C)C)N(C)C(=O)[C@@H]2CCCN2C1=O [pd065] (cyclo([Abu]P[NMeL][Sar][NMedβ3hAla][NMeβAla]L[NMeL]V[NMeF][hPhe][NMeI]S(tBu)[NMeL])) | 41.7 µL/min/mg | 40.2 µL/min/mg Protein | 0.54 ×10⁻⁶ cm/s | 0.54 10^-6 cm/sec | – | – | – | – | – | – | – | – | – | AUC(0-inf) ([4]; in vivo, male mice, intravenous administration, 1 mg/kg, read-out: AUCinf): 8700 ng·h/mL; clearance ([4]; in vivo, male mice, intravenous administration, 1 mg/kg, read-out: CL): 1.9 mL/min/kg; Vd ([4]; in vivo, male mice, intravenous administration, 1 mg/kg, read-out: Vss): 0.57 L/kg; half-life ([4]; in vivo, male mice, intravenous administration, 1 mg/kg, read-out: t1/2 (converted)): 5.4 h; bioavailability ([4]; in vivo, male mice, oral 50 mg/kg vs intravenous 1 mg/kg, bioavailability, read-out: F): 26%; AUC(0-inf) ([4]; in vivo, male mice, oral administration, 50 mg/kg, read-out: AUCinf): 110000 ng·h/mL; Cmax ([4]; in vivo, male mice, oral administration, 50 mg/kg, read-out: Cmax): 11000 ng/mL; Tmax ([4]; in vivo, male mice, oral administration, 50 mg/kg, read-out: Tmax): 2.7 h; half-life ([4]; in vivo, male mice, oral administration, 50 mg/kg, read-out: t1/2 (converted)): 5.8 h |

From EP4768499A1, “MACROCYCLIC PEPTIDE COMPOUND HAVING CELL MEMBRANE PERMEABILITY AND METABOLIC STABILITY, AND LIBRARY CONTAINING SAME” (Chugai Seiyaku Kabushiki Kaisha, priority 2023, dated 2025)
